Columns and labels:
[1] = tested on: lung cancer cell line A549; test: Inhibitory activity on Oxygen Consumption Rate (OCR); assay type: cell-based; conditions: A549, 3 hrs, 10 uM compound; phenformin set to 100%, untreated control set to 0%
Description: The cellular metabolic activity of the compounds on Oxygen Consumption Rate (OCR) was evaluated, because the biguanide drugs have anticancer activity by inhibiting the oxidative phosphorylation of cancer cell.
A549 cells were inoculated at 5×10^3 cells in RPMI1640 media on XF96 cell culture plate and cultured for 24 h (temp; 37° C., 5% CO2) to make the cell adhere to the plate.
After 24 hr, A549 cells were treated by 10 μM of the compounds or phenformin, and were washed with XF analysis media using Prep station to remove the original media. A549 cells were retreated by compounds or phenformin and incubated for 1 hr (temp; 37° C., Non-CO2) in Prep station. While incubation in Prep station, sensor cartridge was calibrated for 1 hr. Then, the calibrated sensor cartridge was inserted to the cell plate to analyze OCR.
When OCR of phenformin as a reference drug was set to 100% and OCR of untreated control was set to 0%, the OCR of tested compounds was calculated by converting the measured OCR to be the relative percentage value (%).

HCT116 cell = test: Inhibitory activity against cancer cells (MTT cell viability), HCT116; assay type: cell-based, human; conditions: Homo sapiens, HCT 116, 48 hr incubation
Description: (§1) The inhibitory activities of biguanide derivatives against cancer cells were evaluated in the cell line SK-MEL-28 derived from human Melanoma cell, Miapaka-2 cell line derived from human pancreatic cancer cell and HCT116 cell line derived from human colorectal cancer cell by measuring the concentration that inhibits 50% of the growth of the cell lines (the half maximal inhibitory concentration, IC50).
(§2) Firstly, SK-MEL-28 cells were grown to be density of 5,000 cells/well in RPMI-1640 media supplemented with 10% (v/v) bovine calf serum, on 96-well plates for 16 hr. To measure the IC50 of each compound, the cells were incubated for 48 hr with the 100 mM PBS stock compounds at an amount of 10 mM, 1 mM, 200 uM, 40 uM, 8 uM, 1.6 uM, 0.32 uM or 0.064 uM; 50 mM PBS and EtOH stock compounds at an amount of 1 mM, 200 uM, 40 uM, 8 uM, 1.6 uM, 0.32 uM and 0.064 uM; and 50 mM DMSO stock compounds at an amount of 100 uM, 25 uM, 6.25 uM, 1.56 uM, 0.39 uM, 0.10 uM and 0.02 uM, respectively. To test the viable cells after incubation with each compound, the cell cultures were incubated additionally for 2 hr in the presence of MTT. The produced formazan crystals were dissolved with dimethyl sulfoxide and then measured by detecting the absorbance at 560 nm.
(§3) After the 48 hr incubation, the viable cells were counted on the well plates treated with the compounds of the Examples relative to the count of the viable cells on the non-treated plates, and then was represented as the cell viability (%). By using the cell viability (%) result, the cell viability curve was plotted, and IC50 was calculated from the curve to evaluate the inhibitory activity against cancer cells.
(§4) The inhibitory activities of biguanide derivatives against cancer cells of Miapaca-2 cell and HCT116 cell were evaluated according to the substantially same method as described in SK-MEL-28 cell, except that DMEM media supplemented with 10% (v/v) bovine calf serum was used instead of RPMI-1640 media supplemented with 10% (v/v) bovine calf serum for SK-MEL-28 cell.

Miapaca-2 cell = test: Inhibitory activity against cancer cells (MTT cell viability), Miapaca-2; assay type: cell-based; conditions: Homo sapiens, MIA PaCa-2, Miapaca-2, 48 hr incubation
Description: as §1, §2, §3, §4

SK-MEL-28 cells = test: Inhibitory activity against cancer cells (MTT cell viability), SK-MEL-28; assay type: cell-based; conditions: Homo sapiens, SK-MEL-28, 48 hr incubation
Description: as §1, §2, §3

| Structure (SMILES) | OCR inhibition relative to phenformin (%) [1] [%] | IC50 (HCT116 cell) [µM] | IC50 (Miapaca-2 cell) [µM] | IC50 (SK-MEL-28 cells) [µM] |
| --- | --- | --- | --- | --- |
| CN1CCN(C(=N)NC(=N)Nc2ccc(F)c(OC(F)(F)F)c2)CC1.Cl [Example 40, N1-4-methyl piperazine-N5-(4-fluoro-3-trifluoromethoxy)phenyl biguanide] | 42.9 | 35.2 |  |  |
| Cl.N=C(NC(=N)N1CCC(O)CC1)Nc1ccc(OC(F)(F)F)cc1 [Example 18, N1-4-hydroxy piperidine-N5-(4-trifluoromethoxy)phenyl biguanide] | 57 | > 100 | 47.9 | 182 |
| Cl.N=C(NC(=N)N1CCc2ccccc2C1)N1CCCC1 [Example 89, N-(imino(pyrrolidin-1-yl)methyl)-3,4-dihydroisoquinoline-2(1H)-carboximidamide] | 44 | 59.5 |  |  |
| Cl.N=C(NC(=N)N1CCC(CO)C1)Nc1ccc(OC(F)(F)F)cc1 (stereo not drawn) [Example 20, N1-3-hydroxy methyl pyrrolidine-N5-(4-trifluoromethoxy)phenyl biguanide] | 15 | > 100 | 58.6 | 134 |
| N=C(NC(=N)N1CC[C@H](O)C1)Nc1ccc(OC(F)(F)F)cc1 [Example 17, N1-(S)-3-hydroxy pyrrolidine-N5-(4-trifluoromethoxy)phenyl biguanide] |  | > 100 | 113 | 184 |
| Cl.N=C(NC(=N)N1CCC(O)CC1)Nc1cccc(Oc2ccccc2)c1 [Example 22, N1-4-hydroxy piperidine-N5-(3-phenoxy)phenyl biguanide] | 74 |  | 106 |  |
| N=C(NC(=N)N1CCCC1)Nc1ccc(/C=C/C(=O)N2CCCCC2)cc1 [Example 24, (E)-N—(N-(4-(3-oxo-3-(piperidin-1-yl)prop-1-enyl)phenyl)carbamimidoyl)pyrrolidine-1-carboximidamide] |  | > 100 | > 100 | > 100 |
| N=C(NC(=N)N1CCCC1)Nc1ccc2c(c1)CCCC2 [Example 14, N1-pyrrolidine-N5-(5,6,7,8-tetrahydronaphthalene-2-yl) biguanide] |  | > 100 | 26.6 | 29.5 |
| C[C@H]1CCCN1C(=N)NC(=N)Nc1ccc(OC(F)(F)F)cc1.Cl [Example 16] | 13 | 39.8 |  |  |
| CC(C)c1ccc(NC(=N)NC(=N)N2CCCC2)cc1.Cl [Example 6, N1-pyrrolidine-N5-(4-isopropyl)phenyl biguanide] | 44 | 28.6 |  |  |

Reference: patent US10221190B2, “Biguanide compounds and use thereof” (IMMUNOMET THERAPEUTICS INC., priority 2013, dated 2019)
